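Five concentrations, 48 hours, 96-well plates. GI50: concentration for 50% inhibition of growth. TGI marks complete inhibition of growth.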

Data on eight molecules can be found in PubChem BioAssay (NCI).

Among the test systems are SK-OV-3 ovarian; NCI-H522 lung; MALME-3M melanoma; SR leukemia; PC-3 prostate; SW-620 colon; IGROV1 ovarian; SN12C renal; SF-268 CNS; SF-295 CNS.
Holding throughout (test): NCI-60 cell line screen, 48 h

Turning to `CS(=O)(=O)N(c1cc(-c2ccc3ncnc(Nc4ccc(F)c(Cl)c4)c3c2)cnc1Cl)S(C)(=O)=O`, the GI50 with SK-OV-3 ovarian was 0.6 µM; in the test with NCI-H522 lung, 1.57 µM; with MALME-3M melanoma it was 0.267 µM; in the test with SR leukemia it was 4.35 µM; in the test on PC-3 prostate, 1.1 µM; in the test with SW-620 colon it was 1.71 µM. The GI50 was 0.196 µM with IGROV1 ovarian, 0.964 µM in the test with SN12C renal, 0.868 µM in the test with SF-268 CNS and 1.25 µM in the test on SF-295 CNS. The TGI in the test on SK-OV-3 ovarian was 4.31 µM; in the test on NCI-H522 lung it was 11.1 µM; in the test with MALME-3M melanoma, 2.12 µM; with SR leukemia, more than 100 µM; with PC-3 prostate, 7.9 µM; with SW-620 colon, more than 38.4 µM. Moreover, the TGI was 0.786 µM in the test on IGROV1 ovarian, more than 32.6 µM with SN12C renal, 7.61 µM with SF-268 CNS and 4.92 µM in the test on SF-295 CNS.

Turning to `CC[C@H](C)[C@H](NC(=O)c1cccn1C)C(=O)N(C)[C@H](C[C@@H](OC(C)=O)c1nc(C(=O)N[C@@H](Cc2ccccc2)C[C@H](C)C(=O)OC)cs1)C(C)C`, the GI50 in the test on SK-OV-3 ovarian was 0.124 µM; with NCI-H522 lung, 0.0661 µM; with MALME-3M melanoma, 11.1 µM; in the test with SR leukemia, 0.0546 µM; in the test with PC-3 prostate it was 0.141 µM; with SW-620 colon, 0.205 µM. Also, the GI50 in the test on IGROV1 ovarian is 0.228 µM; in the test with SN12C renal it was 0.351 µM; with SF-268 CNS, 0.351 µM; in the test on SF-295 CNS, 0.0744 µM. Also, the TGI was more than 33.3 µM in the test with SK-OV-3 ovarian; 2.08 µM in the test on NCI-H522 lung; more than 33.3 µM in the test with MALME-3M melanoma; more than 33.3 µM with SR leukemia; more than 33.3 µM in the test on PC-3 prostate; more than 33.3 µM in the test on SW-620 colon. Moreover, the TGI in the test with IGROV1 ovarian, with SN12C renal and with SF-268 CNS was more than 33.3 µM each time.

Consider `COc1ccc(S(=O)(=O)N(C(C)=O)c2ccccc2/C=C/c2cc[n+]([O-])cc2)cc1`, for which the GI50 in the test with SK-OV-3 ovarian is 1.05 µM; with NCI-H522 lung, 0.225 µM; in the test on MALME-3M melanoma it was 3.77 µM; in the test with SR leukemia it was 0.23 µM; with PC-3 prostate, 0.688 µM; in the test on SW-620 colon it was 0.559 µM. For the same molecule, the GI50 in the test on IGROV1 ovarian was 1.07 µM; in the test with SN12C renal, 1.61 µM; with SF-268 CNS, 1.71 µM; in the test with SF-295 CNS, 0.385 µM. The TGI in the test on SK-OV-3 ovarian is more than 10 µM; with NCI-H522 lung, 1.65 µM; with MALME-3M melanoma, more than 10 µM; with SR leukemia it was more than 10 µM; in the test on PC-3 prostate, more than 10 µM; in the test with SW-620 colon it was more than 10 µM. The TGI in the test with IGROV1 ovarian, with SN12C renal, in the test on SF-268 CNS and in the test with SF-295 CNS was more than 10 µM in each case.

Consider `N#Cc1cccc(N2C(=O)C3C4C=CC(C3C2=O)C2C(=O)N(c3cccc(C#N)c3)C(=O)C42)c1` (stereo not drawn), for which the TGI is 34.9 µM in the test on SK-OV-3 ovarian; 38.2 µM in the test with NCI-H522 lung; 99.4 µM in the test on MALME-3M melanoma; 49.5 µM in the test with SR leukemia; more than 100 µM in the test with PC-3 prostate; more than 100 µM in the test on SW-620 colon. The TGI in the test with IGROV1 ovarian was 49.2 µM; with SN12C renal it was more than 39.8 µM; in the test with SF-268 CNS, 49.7 µM; in the test with SF-295 CNS, 36.7 µM.

`CCCCn1c(=O)c(/C=C/C(=O)/C=C/c2cc3ccccc3n(CCCC)c2=O)cc2ccccc21`: the GI50 in the test on SK-OV-3 ovarian is 3.59 µM; with NCI-H522 lung, 1.86 µM; in the test with MALME-3M melanoma, 2.29 µM; in the test on SR leukemia, 0.315 µM; with PC-3 prostate it was 1.79 µM; in the test with SW-620 colon it was 0.859 µM. In addition, the GI50 in the test with IGROV1 ovarian is 1.46 µM; in the test on SN12C renal, 2.21 µM; in the test on SF-268 CNS, 1.98 µM; in the test with SF-295 CNS, 1.84 µM. Moreover, the TGI in the test with SK-OV-3 ovarian is 9.35 µM; in the test on NCI-H522 lung it was 4.07 µM; in the test on MALME-3M melanoma, 5.33 µM; with SR leukemia, more than 100 µM; in the test with PC-3 prostate, 3.86 µM; in the test on SW-620 colon, 2.84 µM. Further, the TGI turned out to be 3.42 µM in the test on IGROV1 ovarian, 5.2 µM with SN12C renal, 5.17 µM in the test with SF-268 CNS and 4.24 µM in the test on SF-295 CNS.

With `COc1cc(CNc2oc(-c3ccccc3)c(-c3ccccc3)c2C#N)cc(CN2CCN(C)CC2)c1O`, the GI50 in the test with SK-OV-3 ovarian was 2.22 µM; in the test on NCI-H522 lung, 1.87 µM; with MALME-3M melanoma, 1.85 µM; in the test with SR leukemia, 1.6 µM; in the test on PC-3 prostate, 1.87 µM; in the test with SW-620 colon, 1.72 µM. Further, the GI50 with IGROV1 ovarian was 1.58 µM; with SN12C renal, 3.95 µM; in the test with SF-268 CNS it was 1.79 µM; with SF-295 CNS, 1.87 µM. In addition, the TGI with SK-OV-3 ovarian is 4.06 µM; with NCI-H522 lung, 3.95 µM; in the test on MALME-3M melanoma, 3.41 µM; in the test with SR leukemia, 4.46 µM; with PC-3 prostate, 4.09 µM; with SW-620 colon, 3.33 µM. The TGI was 3.25 µM in the test with IGROV1 ovarian, 15.3 µM in the test on SN12C renal, 3.7 µM in the test with SF-268 CNS and 3.49 µM in the test with SF-295 CNS.

In the case of `COc1cc2nccc(Oc3ccc(NC(=O)c4cn(C(C)C)c(=O)n(-c5ccc(F)cc5)c4=O)cc3F)c2cc1OC`, the GI50 in the test with SK-OV-3 ovarian is more than 100 µM; in the test with NCI-H522 lung it was more than 22.5 µM; in the test on MALME-3M melanoma it was 2.39 µM; with SR leukemia it was more than 100 µM; in the test on PC-3 prostate, 6.28 µM; with SW-620 colon, 5.77 µM. For the same molecule, the GI50 in the test on SN12C renal was 2.81 µM; in the test on SF-268 CNS, 4.51 µM; in the test with SF-295 CNS it was 0.435 µM. For the same molecule, the TGI is more than 100 µM in the test with SK-OV-3 ovarian; more than 100 µM with NCI-H522 lung; 11.8 µM in the test with MALME-3M melanoma; more than 100 µM with SR leukemia; more than 100 µM in the test with PC-3 prostate; more than 100 µM in the test with SW-620 colon. For the same molecule, the TGI in the test on IGROV1 ovarian was more than 100 µM; in the test on SN12C renal it was more than 100 µM; in the test with SF-268 CNS, more than 51.6 µM; with SF-295 CNS, more than 100 µM.

On to `C/C=C(\C)C(=O)OC1/C=C(\C)CC/C=C(\C)CC2OC(=O)C(C)(OC(C)=O)C12` (stereo not drawn), for which the TGI with SK-OV-3 ovarian, in the test on NCI-H522 lung, in the test with MALME-3M melanoma, in the test on SR leukemia, with PC-3 prostate and in the test with SW-620 colon was more than 100 µM in each case. Besides, the TGI in the test with IGROV1 ovarian, in the test with SN12C renal, in the test on SF-268 CNS and in the test with SF-295 CNS was more than 100 µM throughout.
